Measured values as given in patent publication US20260265265A1, “NOVEL BENZIMIDAZOLONE DERIVATIVE COMPOUND AS AUTOTAXIN INHIBITOR” (LG CHEM, LTD., priority 2023, published 2026).

Each compound was assayed against T1, Recombinant Human ENPP-2/Autotaxin (Homo sapiens, UniProt Q13822) (assay: LysoPLD activity measurement (autotaxin enzyme inhibition, choline release, TOOS reagent)). Conditions: LysoPLD inhibitory activity; substrate 14:0 LysoPC; absorbance at 555 nm.
T1 construct: purchased R&D systems 5255-EN
Type: biochemical
Procedure: Such a measurement method is a method of measuring the amount of choline, which is a reaction product in an autotaxin enzyme reaction, using a TOOS reagent. Depending on the activity of the autotaxin inhibitor, the amount of choline produced as a reaction product varies, which affects the final absorbance.
After 30 min, 14:0 LysoPC of the substrate diluted to a concentration of 300 μM with the enzyme reaction buffer solution was dispensed into each well by 50 μL and allowed to stand at 37° C. for 90 minutes. At this time, negative control wells were dispensed with 1% DMSO, substrate, and autotaxin instead of the compound, and positive control wells were dispensed with 1% DMSO and substrate.
O=C(O)c1cccc(Cn2c(=O)n(-c3ccccc3)c3cc(Cl)ccc32)c1 [Example 1, 3-((5-chloro-2-oxo-3-phenyl-2,3-dihydro-1H-benzo[d]imidazol-1-yl)methyl)benzoic acid] was tested, and the IC50 was 100 to 1000 nM. CCCc1ccc(-n2c(=O)n(Cc3cccc(C(=O)O)c3)c3ccc(Cl)cc32)cc1 [Example 2, 3-((5-chloro-2-oxo-3-(4-propylphenyl)-2,3-dihydro-1H-benzo[d]imidazol-1-yl)methyl)benzoic acid] showed an IC50 of 100 to 1000 nM. Work on O=C(O)c1cccc(Cn2c(=O)n(-c3ccc(F)cc3)c3cc(Cl)ccc32)c1 [Example 3, 3-((5-chloro-3-(4-fluorophenyl)-2-oxo-2,3-dihydro-1H-benzo[d]imidazol-1-yl)methyl)benzoic acid] yielded an IC50 of 100 to 1000 nM. For O=C(O)c1cccc(Cn2c(=O)n(-c3ccc(C(F)(F)F)cc3)c3cc(Cl)ccc32)c1 [Example 4, 3-((5-chloro-2-oxo-3-(4-(trifluoromethyl)phenyl)-2,3-dihydro-1H-benzo[d]imidazol-1-yl)methyl)benzoic acid], the IC50 was 100 to 1000 nM. With COc1ccc(-n2c(=O)n(Cc3cccc(C(=O)O)c3)c3ccc(Cl)cc32)cc1 [Example 5, 3-((5-chloro-3-(4-methoxyphenyl)-2-oxo-2,3-dihydro-1H-benzo[d]imidazol-1-yl)methyl)benzoic acid] the IC50 was 10 to 100 nM. With O=C(O)c1cccc(Cn2c(=O)n(-c3ccc(-c4ccc(Cl)cc4)cc3)c3cc(Cl)ccc32)c1 [Example 7, 3-((5-chloro-3-(4′-chloro-[1,1′-biphenyl]-4-yl)-2-oxo-2,3-dihydro-1H-benzo[d]imidazol-1-yl)methyl)benzoic acid] the IC50 was 100 to 1000 nM. With Cc1ccc(-n2c(=O)n(Cc3cccc(C(=O)O)c3)c3ccc(Cl)cc32)cc1 [Example 8, 3-((5-chloro-2-oxo-3-(p-tolyl)-2,3-dihydro-1H-benzo[d]imidazol-1-yl)methyl)benzoic acid] the IC50 was 100 to 1000 nM. Compound O=C(O)c1cccc(Cn2c(=O)n(-c3ccc4c(c3)OCO4)c3cc(Cl)ccc32)c1 [Example 9, 3-((3-(benzo[d][1,3]dioxol-5-yl)-5-chloro-2-oxo-2,3-dihydro-1H-benzo[d]imidazol-1-yl)methyl)benzoic acid] has an IC50 of 100 to 1000 nM. CN(C)c1ccc(-n2c(=O)n(Cc3cccc(C(=O)O)c3)c3ccc(Cl)cc32)cc1 [Example 10, 3-((5-chloro-3-(4-(dimethylamino)phenyl)-2-oxo-2,3-dihydro-1H-benzo[d]imidazol-1-yl)methyl)benzoic acid] was tested, and the IC50 was 10 to 100 nM. For CC(C)C(=O)Nc1ccc(-n2c(=O)n(Cc3cccc(C(=O)O)c3)c3ccc(Cl)cc32)cc1 [Example 11, 3-((5-chloro-3-(4-isobutyramidophenyl)-2-oxo-2,3-dihydro-1H-benzo[d]imidazol-1-yl)methyl)benzoic acid], the IC50 was 100 to 1000 nM. CC(C)(C)c1ccc(-n2c(=O)n(Cc3cccc(C(=O)O)c3)c3ccc(Cl)cc32)cc1 [Example 12, 3-((3-(4-(tert-butyl)phenyl)-5-chloro-2-oxo-2,3-dihydro-1H-benzo[d]imidazol-1-yl)methyl)benzoic acid] gave an IC50 of 100 to 1000 nM. O=C(O)c1cccc(Cn2c(=O)n(-c3ccc(O)cc3)c3cc(Cl)ccc32)c1 [Example 13, 3-((5-chloro-3-(4-hydroxyphenyl)-2-oxo-2,3-dihydro-1H-benzo[d]imidazol-1-yl)methyl)benzoic acid] was tested, and the IC50 was 100 to 1000 nM. With CC(C)Oc1ccc(-n2c(=O)n(Cc3cccc(C(=O)O)c3)c3ccc(Cl)cc32)cc1 [Example 14, 3-((5-chloro-3-(4-isopropoxyphenyl)-2-oxo-2,3-dihydro-1H-benzo[d]imidazol-1-yl)methyl)benzoic acid] the IC50 was 10 to 100 nM. O=C(O)c1cccc(Cn2c(=O)n(-c3ccc(-c4ccccc4)cc3)c3cc(Cl)ccc32)c1 [Example 15, 3-((3-([1,1′-biphenyl]-4-yl)-5-chloro-2-oxo-2,3-dihydro-1H-benzo[d]imidazol-1-yl)methyl)benzoic acid] was tested, and the IC50 was 100 to 1000 nM. With CCCCc1ccc(-n2c(=O)n(Cc3cccc(C(=O)O)c3)c3ccc(Cl)cc32)cc1 [Example 16, 3-((3-(4-butylphenyl)-5-chloro-2-oxo-2,3-dihydro-1H-benzo[d]imidazol-1-yl)methyl)benzoic acid] the IC50 was 100 to 1000 nM. CC(C)c1ccc(-n2c(=O)n(Cc3cccc(C(=O)O)c3)c3ccc(Cl)cc32)cc1 [Example 17, 3-((5-chloro-3-(4-isopropylphenyl)-2-oxo-2,3-dihydro-1H-benzo[d]imidazol-1-yl)methyl)benzoic acid] gave an IC50 of 100 to 1000 nM. Compound CC(C)(O)c1ccc(-n2c(=O)n(Cc3cccc(C(=O)O)c3)c3ccc(Cl)cc32)cc1 [Example 18, 3-((5-chloro-3-(4-(2-hydroxypropan-2-yl)phenyl)-2-oxo-2,3-dihydro-1H-benzo[d]imidazol-1-yl)methyl)benzoic acid] has an IC50 of 10 to 100 nM. In the case of CS(=O)(=O)Nc1ccc(-n2c(=O)n(Cc3cccc(C(=O)O)c3)c3ccc(Cl)cc32)cc1 [Example 19, 3-((5-chloro-3-(4-(methylsulfonamido)phenyl)-2-oxo-2,3-dihydro-1H-benzo[d]imidazol-1-yl)methyl)benzoic acid], the IC50 is reported as 10 to 100 nM. In the case of CCOc1ccc(-n2c(=O)n(Cc3cccc(C(=O)O)c3)c3ccc(Cl)cc32)cc1 [Example 20, 3-((5-chloro-3-(4-ethoxyphenyl)-2-oxo-2,3-dihydro-1H-benzo[d]imidazol-1-yl)methyl)benzoic acid], the IC50 is reported as 10 to 100 nM. With CN(C)C(=O)c1ccc(-n2c(=O)n(Cc3cccc(C(=O)O)c3)c3ccc(Cl)cc32)cc1 [Example 21, 3-((5-chloro-3-(4-(dimethylcarbamoyl)phenyl)-2-oxo-2,3-dihydro-1H-benzo[d]imidazol-1-yl)methyl)benzoic acid] the IC50 was under 10 nM. For CNC(=O)c1ccc(-n2c(=O)n(Cc3cccc(C(=O)O)c3)c3ccc(Cl)cc32)cc1 [Example 22, 3-((5-chloro-3-(4-(methylcarbamoyl)phenyl)-2-oxo-2,3-dihydro-1H-benzo[d]imidazol-1-yl)methyl)benzoic acid], the IC50 was 10 to 100 nM. In the case of O=C(O)c1cccc(Cn2c(=O)n(-c3ccc(C(=O)NCC(F)(F)F)cc3)c3cc(Cl)ccc32)c1 [Example 23, 3-((5-chloro-2-oxo-3-(4-((2,2,2-trifluoroethyl)carbamoyl)phenyl)-2,3-dihydro-1H-benzo[d]imidazol-1-yl)methyl)benzoic acid], the IC50 is reported as 100 to 1000 nM. O=C(O)c1cccc(Cn2c(=O)n(-c3ccc(N4CCOCC4)cc3)c3c(F)c(Cl)ccc32)c1 [Example 24, 3-((5-chloro-4-fluoro-3-(4-morpholinophenyl)-2-oxo-2,3-dihydro-1H-benzo[d]imidazol-1-yl)methyl)benzoic acid] showed an IC50 of 10 to 100 nM. In the case of CN(C)c1ccc(-n2c(=O)n(Cc3cccc(C(=O)O)c3)c3ccc(Cl)c(F)c32)cc1 [Example 25, 3-((5-chloro-3-(4-(dimethylamino)phenyl)-4-fluoro-2-oxo-2,3-dihydro-1H-benzo[d]imidazol-1-yl)methyl)benzoic acid], the IC50 is reported as 10 to 100 nM. Compound O=C(O)c1cccc(Cn2c(=O)n(-c3ccc(NS(=O)(=O)CC(F)(F)F)cc3)c3cc(Cl)ccc32)c1 [Example 26, 3-((5-chloro-2-oxo-3-(4-((2,2,2-trifluoroethyl)sulfonamido)phenyl)-2,3-dihydro-1H-benzo[d]imidazol-1-yl)methyl)benzoic acid] has an IC50 of 100 to 1000 nM.
